Laboratory results reported in patent publication US6413975B1, “Purine derivatives having phosphodiesterase iv inhibition activity” (Euro-Celtique, S.A., priority 1999, dated 2002).
Where a name gives a salt, the structure may show the parent alone. Read-outs that look alike come from different tables or passages of the source.

System: Type IV PDE
Assay: PDE IV inhibition: hydrolysis of [3H]-cyclic AMP by isolated Type IV PDE
Assay type: biochemical, bovine
Protocol: The Type IV PDE is isolated from bovine tracheal smooth muscle using a procedure similar to that previously described by Silver, P. J., Hamel, L. T., Perrone, M. H. Bentley, R. G. Bushover, C. R., Evans, D. B.: Eur. J. Pharmacol. 150:85,1988.(1). Briefly, smooth muscle from bovine trachea is minced and homogenized using a polytron in 10 volumes of an extraction buffer containinhg 10 mM Tris-acetate (pH 7.5), 2 mM magnesium chloride, 1 mM dithiothreitol and 2,000 units/ml of aprotinin. This and all subsequent procedures are performed at 0-4° C. The homogenate is sonicated and then centrifiged at 48,000×g for 30 minutes. The resulting supernatant is applied to a DEAE Trisacryl M column previously equilibrated with sodium acetate and dithiothreitol. After applications of the sample, the column is washed with sodium acetate/dithiothreitol, after which the different forms of PDE are eluted from the column using a linear Tris-HCl/NaCl gradient. Fractions containing Type IV PDE are collected, dialyzed and concentrated to 14% of the original volume. The concentrated fractions are diluted to 50% with ethylene glycol and stored at -20° C.
Enzyme activity is assessed by measuring the hydrolysis of [^3H]-cyclic AMP, as described by Thompson, W. J., Teraski, W. L., Epstein, P. N., Strada, S. J.: Adv. Cyclic Nucleotide Res. 10:69, 1979. The cyclic AMP concentration used in this assay is 0.2 μM, which approximates the Km value. Protein concentration is adjusted to ensure that no more than 15% of the available substrate is hydrolyzed during the incubation period.
All test compounds are dissolved in dimethyl sulfoxide (final concentration of 2.5%). This concentration of dimethyl sulfoxide inhibits enzyme activity by approximately 10%.

[1] = adenines, Table 7, read-out: calc PDE IV IC50
[2] = thioisoguanines, Table 2, cyclic AMP 0.2 μM, read-out: Calc IC50 PDE IV
[3] = dithioxanthines, Table 5, read-out: IC50 PDE IV
[4] = adenines, Table 4, cyclic AMP 0.2 μM, read-out: calc PDE IV IC50

Compound | IC50 [1] [µM] | further results
CC(C)c1nc2c(N)ncn(CC3CCCC3)c-2n1 [6-amino-3-cyclopentylmethyl-8-isopropyl-3H-purine] | 23.2 | 
CCCn1c(=S)nc(N)c2[nH]c(C3CC3)nc21 [6-amino-8-cyclopropyl-3,7-dihydro-3 propyl-2-thio-2H-purin-2-one] |  | IC50 [2]: 39.4 µM
CCCCn1c(=S)[nH]c(=S)c2[nH]c(C3CC3)nc21 [3-butyl-8-cyclopropyl-3,7-dihydro-2,6-dithio-1H-purine-2,6-dione] |  | IC50 [3]: 9.43 µM
CCn1c(=S)c2[nH]c(C3CC3)nc2n(CC)c1=S [8-cyclopropyl-3,7-dihydro-1,3-diethyl-2,6-dithio-1H-purin-2,6-dione] |  | IC50 (read-out: PDE IV I50): 0.42 µM
CCNc1ncn(CC2CCCCC2)c2ncnc1-2 [3-cyclohexylmethyl-6-ethylamino-3H-purine hydrochloride] |  | IC50 [4]: 33 µM
COc1ccc(Cn2cnc(N)c3nc(C(C)(C)OCc4ccc(F)cc4)nc2-3)cc1OC [6-Amino-3-(3,4-dimethoxybenzyl)-8-(1-(4-fluorobenzyloxy-1-methyl-ethyl)-3H-purine Hydrochloride] | 1.85 | 
CCCn1c(=S)nc(NCc2ccncc2)c2[nH]c(C3CC3)nc21 [8-cyclopropyl-3,7-dihydro-3-propyl-6-(4-pyridyl-methylamino)-2-thio-2H-purin-2-one] |  | IC50 (read-out: PDE IV I50): 0.41 µM
CCNc1nc(=S)n(CC2CCCCC2)c2nc(C3CC3)[nH]c12 [3-cyclohexylmethyl-8-cyclopropyl-3,7-dihydro-6-ethylamino-2-thio-2H-purin-2-one] |  | IC50 [2]: 15.2 µM
CCNc1ncn(Cc2ccc(OC)c(OC3CCCCC3)c2)c2nc(C(C)C)nc1-2 [3-[3-Cyclohexanyl-4-oxy-4-methoxy-benzyl]-6-ethylamino-8-isopropyl-3H-purine] | 8.28 | 
CCCn1c(=S)[nH]c(=S)c2[nH]c(C3CC3)nc21 [8-cyclopropyl-3,7-dihydro-3-propyl-2,6-dithio-1H-purine-2,6-dione] |  | IC50 [3]: 64.5 µM
CCCCn1c(=S)nc(NCC)c2[nH]c(C3CC3)nc21 [3-butyl-8-cyclopropyl-3,7-dihydro-6-ethylamino-2-thio-2H-purin-2-one] |  | IC50 [2]: 34.9 µM
CCCCCCn1cnc(NC)c2ncnc1-2 [3-hexyl-6-methylamino-3H-purine hydrochloride] |  | IC50 [4]: 34.1 µM
CCNc1ncn(Cc2ccc(OC)c(OC3CCCC3)c2)c2ncnc1-2 [3-(3-Cyclopentyloxy-4-methoxybenzyl)-6-ethylamino-3H-purine Hydrochloride] |  | IC50 (read-out: PDE IV I50): 2.15 µM
CCn1cnc(NCc2ccccc2)c2nc(C(C)C)nc1-2 [3-ethyl-8-isopropyl-6-benzylamino-3H-purine hydrochloride] |  | IC50 [4]: 28.9 µM
CCNc1ncn(Cc2ccc(OC)c(OCCN(C)C)c2)c2nc(C(C)C)nc1-2 [6-Ethylamino-3-[3-(2,2-dimethylaminoethoxy-4-methoxy)]-8-isopropyl-3H-purine] | 8.95 | 
COc1ccc(Cn2cnc(N)c3nc(C(C)(C)OCc4ccccc4)nc2-3)cc1OC [6-Amino-8-(1-benzyloxy-1-methyl-ethyl)-3-(34-dimethoxybenzyl)-3H-purine Hydrochloride] | 0.94 | 
COc1ccc(Cn2cnc(N)c3nc(C(C)C)nc2-3)cc1O [6-amino-3-(3-hydroxy-4-methoxy)-benzyl)-8-isopropyl-3H-purine] | 15.1 | 

Compound | IC50 [1] [µM] | further results
S=c1[nH]c(=S)n(Cc2ccccc2)c2nc[nH]c12 [3-benzyl-3,7-dihydro-2,6-dithio-1H-purine-2,6-dione] |  | IC50 [3]: 38.5 µM
CCCNc1ncn(CC)c2nc(C3CC3)nc1-2 [8-cyclopropyl-3-ethyl-6-propylamino-3H-purine hydrochloride] |  | IC50 [4]: 15.7 µM
CCNc1ncn(CC)c2nc(C3CCCC3)nc1-2 [3-ethyl-8-cyclopentyl-6-ethylamino-3H-purine hydrochloride] |  | IC50 [4]: 28.3 µM
COc1ccc(CNc2ncn(Cc3ccc(OC)c(OC4CCCC4)c3)c3nc(C(C)C)nc2-3)cc1OC1CCCC1 [3-(3-cyclopentyloxy-4-methoxybenzyl)-6-(3-cyclopentyloxy-4-methoxybenzylamino)-8-isopropyl-3H-purine] | 1.14 | 
CCNc1ncn(Cc2ccc(OC)c(O)c2)c2nc(C(C)(C)O)nc1-2 [6-ethylamino-3-[(3-hydroxy-4-methoxy)benzyl]-8-[(1-hydroxy-1-methyl)ethyl]- -3H-purine] | 6.5 | 
CCNc1ncn(CC)c2nc(Cc3ccc(OC)c(OC4CCCC4)c3)nc1-2 [8-(3-Cyclopentyloxy-4-methoxybenzyl)-3-ethyl-6-ethylamino-3H-purine Hydrochloride] |  | IC50 [4]: 4.52 µM
CCN(C(=O)c1ccccc1)c1ncn(Cc2ccc(OC)c(OC3CCCC3)c2)c2nc(C(C)C)nc1-2 [3-(3-cyclopentyloxy-4-methoxybenzyl)-6-(N-benzoyl-N-ethylamino)-8-isopropyl-3H-purine] | 1.43 | 
COc1ccc(Cn2cnc(N)c3nc(C(C)C)nc2-3)cc1OC1CCCC1 [3-(3-cyclopentyloxy-4-methoxybenzyl)-6-amino-8-isopropyl-3H-purine] | 0.82 | 
COc1ccc(Cn2cnc(N)c3nc(C(C)C)nc2-3)cc1OC [6-amino-3-(3,4-dimethoxybenzyl)-8-isopropyl-3H-purine] | 0.92 | 
CCCNc1nc(=S)n(CC2CC2)c2nc(C(C)C)[nH]c12 [3-(cyclopropylmethyl)-3,7-dihydro-8-(1-methyl-ethyl)-6-propylamino-2-thio-2H-purin-2-one hydrochloride] |  | IC50 [2]: 23.9 µM
CCNc1ncn(Cc2ccc(OC)c(OC3CN4CCC3CC4)c2)c2nc(C(C)C)nc1-2 (centres unmarked) [6-Ethylamino-3-[3-(2,2,2)-azabicyclooctan-3-yloxy)-4-methoxy]-8-isopropyl-3H-purine] | 2.05 | 
CC(C)(OCc1ccc(F)cc1)c1nc2c(N)ncn(Cc3ccc4c(c3)OCO4)c-2n1 [6-amino-3-(3,4-methylenedioxybenzyl)-8-[1-(4-fluorobenzyloxy)-1-methyl-ethyl]-3H-purine] | 0.72 | 
CCCn1c(=S)nc(NCc2ccccc2)c2[nH]c(C3CC3)nc21 [6-benzylamino-8-(cyclopropyl)-3,7-dihydro-3-propyl-2-thio-2H-purin-2-one hydrochloride] |  | IC50 [2]: 33.6 µM
CC(C)c1nc2c([nH]1)c(=S)[nH]c(=S)n2Cc1ccccc1 [3-benzyl-3,7-dihydro-8-(1-methylethyl)-2,6-dithio-1H-purine-2,6-dione] |  | IC50 (read-out: PDE IV I50): 3.4 µM
CCNc1ncn(Cc2ccc(OC)c(O[C@@H]3C[C@H]4CC[C@@H](C3)N4C)c2)c2nc(C(C)C)nc1-2 [6-Ethylamino-3-[(exo-8-methyl-8-azabicyclo(3,2,1)-octan-3-yl-oxy)-4-methoxy-benzy]-8-isopropyl-3-H-purine] | 6.02 | 
CCNc1ncn(CC2CC2)c2nc(C(C)C)nc1-2 [3-cyclopropylmethyl-8-isopropyl-6-ethylamino-3H-purine hydrochloride] |  | IC50 [4]: 12.7 µM

Now from value to molecule, other results behind:

IC50 [1] [µM] | Compound | further results
0.27 | C=C(C)c1nc2c(NCC)ncn(Cc3ccc(OC)c(OC4CCCC4)c3)c-2n1 [3-[(3-cyclopentyloxy-4-methoxy)benzyl]-6-ethylamino-8-(1-methyl-ethenyl)-3H-purine] | 
1.36 | CCNc1ncn(Cc2ccc(OC)c(OC3CCC(O)C3)c2)c2nc(C(C)C)nc1-2 (centres unmarked) [3-(3-((3-hydroxy)cyclopentyloxy)-4-methoxybenzyl)-6-ethylami] [3-(3-((3-hydroxy)cyclopentyloxy)-4-methoxybenzyl)-6-ethylamino-8-isopropyl-3H-purine] | 
12.5 | CCNc1ncn(Cc2ccc(OC)c(OCC3CCCC3)c2)c2nc(C(C)C)nc1-2 [6-Ethylamino-3-[3-cyclopentylmethoxy-4-methoxy-benzyl]-8-isopropyl-3H-purine] | 
0.85 | CCNc1ncn(Cc2ccc(OC)c(OC3CCCC3)c2)c2nc(C(C)(C)O)nc1-2 [3-[(3-cyclopentyloxy-4-methoxy)benzyl]-6-ethylamino-8-[(1-hy] [3-[(3-cyclopentyloxy-4-methoxy)benzyl]-6-ethylamino-8-[(1-hydroxy-1-methyl)ethyl]-3H-purine] | 
385 | CCNc1ncn(Cc2cc[n+]([O-])cc2)c2nc(C(C)C)nc1-2 [6-Ethylamino-3-(1-oxopyridin-4-yl-methyl)-8-isopropyl-3H-purine] | 
2.28 | CCNc1ncn(Cc2ccc(OC)c(OC3CCC(O)C3)c2)c2nc(C(C)C)nc1-2 (centres unmarked) [3-[3-(3-hydroxy)cyclopentyloxy)]-4-methoxy)benzyl)-6-ethylam] [3-[3-(3-hydroxy)cyclopentyloxy)]-4-methoxy)benzyl)-6-ethylamino-8-isopropyl-3H-purine] | 
4.46 | CCNc1ncn(CCc2ccc(Cl)cc2)c2nc(C(C)C)nc1-2 [3-{2-(4-chlorophenyl)-ethyl]-6-ethylamino-8-isopropyl-3H-purine] | 
2.6 | CCNc1ncn(Cc2ccc(OC)c(OC3CCC(O)C3)c2)c2nc(C(C)(C)O)nc1-2 (centres unmarked) [6-Ethylamino-3-[3-(3-hydroxycyclopentyloxy)-4-methoxybenzyl)]-8-(1-hydroxy-1-methylethyl)-3H-purine] | 
